Measured values taken from patent US20060182685A1, “Hollow fiber technique for in vivo study of cell populations” (priority 2004, published 2006).
Where two headings read alike, the source gives them in different places. Marks after values point to notes of the source that are not given here.

What was measured:
[1] = system: hollow fiber-encapsulated M. tuberculosis H37Rv-lux
[2] = cited from earlier work
[3] = Serum antibiotic concentrations in mice on medicated diet; conditions: for Cmean: serum; for AUC: SKH1, mouse, in vivo

Row | SMILES | activity against bacilli in the hollow fiber model in vivo [1] | AUC ([2]; Isoniazid, Humans (5 mg/kg), rapid acetylators) | AUC ([2]; human, in vivo, 5 mg/kg) | Cmean ([3]; Isoniazid, SKH1 mice (0.02% diet)) | AUC ([3]; 0.02 % of diet) | kill of hollow fiber-encapsulated bacilli ([1]; in vivo) | AUC ([2]; human, in vivo, 10 mg/kg) | Cmax ([2]; human, in vivo, 10 mg/kg) | Cmean ([3]; Rifampin, SKH1 mice (0.05% diet)) | AUC ([3]; 0.05 % of diet)
1 | NNC(=O)c1ccncc1 [Isoniazid, isoniazid] | somewhat effective | 19.9 ± 6.1^a mg h/L | 48.2 ± 1.5^b mg h/L | 0.77 ± 0.21 mg/L | 18500 ± 5000 ng·h/mL |  |  |  |  | 
2 | CO[C@H]1/C=C/O[C@@]2(C)Oc3c(C)c(O)c4c(O)c(c(/C=N/N5CCN(C)CC5)c(O)c4c3C2=O)NC(=O)/C(C)=C\C=C\[C@H](C)[C@H](O)[C@@H](C)[C@@H](O)[C@@H](C)[C@H](OC(C)=O)[C@@H]1C [Rifampin, rifampin] | magnitude of its effect greater than that of isoniazid |  |  |  |  | 3 log | 117.93 mg·h/L | 14910 ng/mL | 3.09 ± 0.41 mg/L | 74200 ± 9800 ng·h/mL
